The values below are quoted from earlier work in US20040067915A1, “Method to treat cardiofibrosis with a combination of an angiotensin II antagonist and spironolactone” (G.D. Searle & Co., priority 1995, published 2004).

Read-outs that look alike come from different tables or passages of the source.

The subject of data set [1] is myocardial fibrosis in animal models. The note with it: cited from earlier work.
A further data set relates to angiotensin II. The note with it: binding experiments, functional assays and in vivo tests; cited from earlier work.
For data set [2] the following is noted: hypertensive patients, continued ACE inhibition; cited from earlier work.

On to `CC(=O)S[C@@H]1CC2=CC(=O)CC[C@]2(C)[C@H]2CC[C@@]3(C)[C@@H](CC[C@@]34CCC(=O)O4)[C@H]12` [spironolactone, 17-hydroxy-7α-mercapto-3-oxo-17α-pregn-4-ene-21-carboxylic acid γ-lactone acetate], for which the myocardial fibrosis result in data set [1] was “prevents myocardial fibrosis in animal models”; in data set [1] (listed as Spironolactone), “prevent fibrosis in animal models irrespective of the development of left ventricular hypertrophy and the presence of hypertension”.
Take `CCCCc1nc(Cl)c(CC(=O)[O-])n1Cc1ccccc1Cl.[Na+]` [sodium salt of 2-n-butyl-4-chloro-1-(2-chlorobenzyl)imidazole-5-acetic acid]: the “angiotensin II antagonist activity” value in the data set with angiotensin II is given as “specific competitive angiotensin II antagonist activity”.
Regarding `C[C@H](CS)C(=O)N1CCC[C@H]1C(=O)O` [captopril], the plasma aldosterone result in data set [2] is “gradual return of plasma aldosterone to baseline levels”.
